Test results taken from the NIST ThermoML archive (doi:10.1021/je060271a).

Conditions: Liquid, Vibrating tube method

CCCCC(=O)OCC(COC(=O)CCCC)(COC(=O)CCCC)COC(=O)CCCC [pentaerythritol tetrapentanoate]
Conditions | mass density [kg/m3]
303.15 K, 32798 kPa | 1030.6
303.15 K, 32838 kPa | 1030.5
303.15 K, 32877 kPa | 1030.5
303.15 K, 32926 kPa | 1030.5
303.15 K, 32968 kPa | 1030.5
303.15 K, 33012 kPa | 1030.6
303.15 K, 33064 kPa | 1030.6
303.15 K, 33109 kPa | 1030.6
303.15 K, 33144 kPa | 1030.7
303.15 K, 33166 kPa | 1030.7
303.15 K, 33187 kPa | 1030.7
303.15 K, 33214 kPa | 1030.8
303.15 K, 33237 kPa | 1030.6
303.15 K, 33258 kPa | 1030.7
303.15 K, 33284 kPa | 1030.8
303.15 K, 33307 kPa | 1030.8
303.15 K, 33354 kPa | 1030.8
303.15 K, 33377 kPa | 1030.7
303.15 K, 33404 kPa | 1030.7
303.15 K, 33423 kPa | 1030.9
303.15 K, 33449 kPa | 1030.8
303.15 K, 33472 kPa | 1030.7
303.15 K, 33494 kPa | 1030.9
303.15 K, 33521 kPa | 1030.8
303.15 K, 33544 kPa | 1030.8
303.15 K, 33594 kPa | 1030.9
303.15 K, 33616 kPa | 1030.9
303.15 K, 33643 kPa | 1031
303.15 K, 33666 kPa | 1031
303.15 K, 33687 kPa | 1031
303.15 K, 33715 kPa | 1030.9
303.15 K, 33740 kPa | 1031
303.15 K, 33763 kPa | 1031
303.15 K, 33790 kPa | 1031.1
303.15 K, 33813 kPa | 1031
303.15 K, 33836 kPa | 1031
303.15 K, 33862 kPa | 1031
303.15 K, 33886 kPa | 1031.1
303.15 K, 33911 kPa | 1031
303.15 K, 33938 kPa | 1031.1
303.15 K, 33963 kPa | 1031
303.15 K, 33987 kPa | 1031.2
303.15 K, 34014 kPa | 1031.2
303.15 K, 34041 kPa | 1031.1
303.15 K, 34066 kPa | 1031.2
303.15 K, 34091 kPa | 1031.2
303.15 K, 34122 kPa | 1031.2
303.15 K, 34148 kPa | 1031.3
303.15 K, 34176 kPa | 1031.2
303.15 K, 34209 kPa | 1031.1
303.15 K, 34236 kPa | 1031.2
303.15 K, 34272 kPa | 1031.3
303.15 K, 34293 kPa | 1031.3
303.15 K, 34298 kPa | 1031.3
303.15 K, 34306 kPa | 1031.3
303.15 K, 34335 kPa | 1031.4
303.15 K, 34345 kPa | 1031.4
303.15 K, 34355 kPa | 1031.4
303.15 K, 34361 kPa | 1031.3
303.15 K, 34369 kPa | 1031.2
303.15 K, 34375 kPa | 1031.4
303.15 K, 34382 kPa | 1031.4
303.15 K, 34388 kPa | 1031.3
303.16 K, 663.45 kPa | 1011.3
303.16 K, 665.18 kPa | 1011.4
303.16 K, 666.06 kPa | 1011.3
303.16 K, 670.92 kPa | 1011.3
303.16 K, 671.95 kPa | 1011.3
303.16 K, 672.66 kPa | 1011.2
303.16 K, 673.71 kPa | 1011.2
303.16 K, 674.57 kPa | 1011.2
303.16 K, 683.79 kPa | 1011.3
303.16 K, 684.84 kPa | 1011.3
303.16 K, 687.26 kPa | 1011.2
303.16 K, 700.64 kPa | 1011.3
303.16 K, 702.03 kPa | 1011.2
303.16 K, 702.73 kPa | 1011.4
303.16 K, 732.61 kPa | 1011.3
303.16 K, 790.98 kPa | 1011.3
303.16 K, 792.36 kPa | 1011.4
